Laboratory results published in patent US20220264883A1, “IMIDAZOTHIAZOLE COMPOUNDS AND METHODS FOR TREATING PLANT NEMATODE INFECTIONS” (The Governing Council of the University of Toronto, priority 2019, published 2022).

Assays:
[1] = HEK cell culture and dose-response experiments; type: cell-based, Human; details: human, HEK293 cells, non-target system, CellTiter-Blue, read-out: HEK Cells LC50
Method: HEK293 cells were seeded into 96-well plates, at 5000 cells per well, in 100 μL total volumes of DMEM/10% FBS/1% PS media and grown overnight at 37° C. in the presence of 5% CO2. Compounds (0.5 μL volumes from appropriate source plates) were then added to cells, and growth was continued for an additional 48 hours. Following growth, 10 μL of CellTiter-Blue Viability reagent (Promega) was added to each well, and plates were incubated for an additional 4 hours at 37° C. in the presence of 5% CO2. Fluorescence measurements (560 nm excitation/590 nm emission) were then performed using a CLARIOstar Plate Reader (BMG Labtech) to quantify reagent reduction and estimate cell viability.

C. oncophora = test: whole plant or invertebrate; type: in vivo; details: Cooperia oncophora, 48 h; eggs of ivermectin-resistant strain, 2 days, egg hatch
Source text: Fresh cattle faeces containing eggs of an ivermectin-resistant strain of C. oncophora were kindly supplied by Dr. Doug Colwell and Dawn Gray (Lethbridge Research Station, Agriculture and Agri-Food Canada). Established methods were used to carry out the experimental cattle infections^60, and these methods were approved by the Lethbridge AAFC Animal Care committee and conducted under animal use license ACC1407. Cattle faeces containing C. oncophora eggs were stored anaerobically at room temperature for a maximum of 6 days before use. Eggs were isolated from faeces using a standard saturated salt flotation method^61 immediately before the egg hatch assay. 80 μl of distilled and deionized water was added to each well of a 96-well culture plate, and then 1 μl of chemical at the appropriate concentration in DMSO was added to each well using a multichannel pipette. Approximately 50 eggs were added per well in 20 μl of water for a final volume of 100 μl in each well, the final DMSO concentration was 1% (v/v). The eggs were incubated in the chemicals for 2 days at room temperature, after which hatching was stopped by the addition of 1 μl iodine tincture to each well. […] “Relative viability” values were calculated by dividing the fraction of eggs that hatched at each concentration by the fraction of eggs that hatched in the corresponding DMSO control wells. Two biological replicates were performed for each dose-response experiment, and the relative viability values were averaged across the biological replicates. The average hatch rate for the DMSO control wells was greater than 93% for both biological replicates. LC50 values were calculated in the same manner as for the C. elegans dose-response assays

C. elegans = C. elegans viability at a single concentration (Table 3); type: in vivo; details: Caenorhabditis elegans; 100 μM
Method: Forty microliters of an HB101 bacterial suspension in liquid NGM (see above) was added to each well of a 96-well flat-bottom culture plate, after which approximately 25 synchronized L1 worms, in 10 μl of M9 buffer (see ref. 59 for the recipe), were added to each well. The synchronized L1 worms were obtained from an embryo preparation performed the previous day (see ref. 59 for the protocol). For the L1 assays, 0.5 μl of chemical solution (or DMSO alone) was immediately added to the wells using a multichannel pipette, the final DMSO concentration is 1% (v/v). The worms were incubated for 3 days at 20° C. and the number of viable animals was counted. […] Although the counts were performed after 3 days of incubation in the chemical, it was noted that the L1s were dead within 24 hours of the addition of the chemicals. For the L2/L3 assays, the worms were incubated in the absence of chemical for 1 day at 20° C. until they reached the L2/L3 stage, at which point chemical was added as described above. The worms were then allowed to incubate for 2 days at 20° C. and the number of viable animals was counted as described for the L1 assay. For the L4 assays, the worms were incubated for 2 days at 20° C. before the addition of chemicals. The L4-stage worms were then incubated in chemical for an additional day before quantifying the number of viable animals. The adult assays were performed the same way as the L4 assays, however HT115 E. coli carrying the empty dsRNA expressing vector L4440 was used in place of HB101 and the worms were cultured at 25° C. as opposed to 20° C. for the entirety of the experiment. The HT115 suspension was made by concentrating a bacterial culture, with an OD600 of ˜ 0.8, five-fold with liquid NGM containing 1 mM IPTG and 100 μg/ml carbenicillin. The HT115 cells were induced with 1 mM IPTG for one hour before concentrating with NGM.
(§1) The ability of exemplary compounds of the application to kill C. elegans at 100 μM (except for compound If which was tested at 50 μM) and to affect the mobility of M. chitwoodi at 45 μM was tested as described above for M. incognita infective juveniles. Percent mobility was measured after 2 days of chronic exposure to test compounds (Table 3).

P. pacificus = test: Pristionchus pacificus dose-response experiments; type: in vivo; details: larvae, animals reaching L3 stage or older counted
Method: Dose-response assays were carried out exactly as those described above for the C. elegans L1 dose-response experiments. However, the compounds of the application-induced phenotypes in P. pacificus, even at the highest concentrations, were a combination of lethality and larval arrest. Therefore, for the Pristionchus dose-response assays, the number of animals that reached the L3 stage or older was quantified, as opposed to the number of viable worms. The arrested animals appeared very sick, and would likely die before reaching reproductive adulthood. Therefore, this arrested phenotype was considered to be practically analogous to lethality. The “relative viability” values were calculated the same way as for the C. elegans dose-response experiments, and were averaged across at least three biological replicates. LC50 values were calculated in the same manner as for the C. elegans dose-response assays.

M. chitwoodi = test: Root-knot nematode M. chitwoodi mobility (Table 3); type: in vivo, Meloidogyne chitwoodi; details: 45 μM, 2 days of chronic exposure
Method: M. incognita (Kofoid & White) Chitwood Race 1 (originally isolated in Maryland) was used for all experiments, and was maintained on pepper (Capsicum annuum L.) cv. PA-136 in a greenhouse as previously described^64. Infective J2 juveniles were collected as described in ref.65. The microwell dose-response experiments were carried out similarly to previously described protocols^64, 66. In brief, 100 J2s, in 10 μL of deionized water, were added to the wells of 96-well polystyrene plates, after which 190 μL of deionized water containing dissolved chemical, or DMSO alone, was added to each well. The chemicals were tested at 45 μM, and the final concentration of DMSO in each well was 0.5% (v/v). The wells were covered with a plastic adhesive strip, and the lids of the plates were sealed with parafilm. The plates were incubated at 25° C. The mobile fraction of worms was quantified by counting the number of mobile and immobile worms after 2 days of incubation, and then dividing the number of mobile worms by the total number of worms in the well. Three technical replicates were performed for each treatment, and an average value for the mobile fraction of worms was calculated across the three replicates. The percent effectiveness at inhibiting nematode movement was calculated by dividing the average value for the chemical treatment by the average value for the DMSO control, then subtracting this value from 1, and then multiplying by 100.
M. chitwoodi race 1 (the strain commonly found in the pacific northwest of the United States) was used for all experiments, and was maintained on tomato plants (Solanum lycopersicum ‘Rutgers’) as previously described^73. The M. chitwoodi in vitro assays were performed identically to the M. incognita in vitro assays (see above).
as §1

Compound Cc1csc2nc(-c3ccccc3)cn12 [Compound Ie] has a CC50 at 48 h [1] of over 100 µM, an LC50 (C. oncophora) of 0.9 µM and a viability at 100 µM (C. elegans) of 100%. The LC50 (P. pacificus) was 45.5 µM and the RKN mobility (M. chitwoodi) was 50.8%.

For Clc1ccc(-c2cn3ccsc3n2)cc1 [Ia], the CC50 at 48 h [1] was over 100 µM, the LC50 (C. oncophora) was 3.7 µM and the viability at 100 µM (C. elegans) was 0%. The LC50 (P. pacificus) was 6.1 µM and the RKN mobility (M. chitwoodi) was 0%.

In the case of Fc1ccc(-c2cn3ccsc3n2)cc1 [Ib], the CC50 at 48 h [1] was over 100 µM, the LC50 (C. oncophora) was 5.4 µM and the viability at 100 µM (C. elegans) was 0%. For the same compound, the LC50 (P. pacificus) was 14.7 µM and the RKN mobility (M. chitwoodi) was 43.2%.
